Laboratory results: US7888005B2, “Inhibitors of macromolecular activity” (priority 2003, dated 2011)

How the values were obtained:
[1] = tested on: E. coli ribonuclease P RNA; details: literature (Vioque 1989; Mikkelsen et al.); cited from earlier work
[2] = tested on: E. coli cell (19R/PTZ) strain containing a single chromosomal copy of the wildtype rnpB gene; assay: Top agar plate screen of extract dilutions, strain 19R/PTZ; type: cell-based; details: strain 19R/PTZ (single chromosomal rnpB)
Description: (§1) Methods. Different strains of E. coli-DH5alpha (DM46 and PTZ/19R) were streaked onto bacto MacConkey agar base plate containing ampicillin at 50 μg/ml. Then a fresh single colony was grown on 5 ml NZY Ap (50 μg/ml) broth at 37° C. overnight. The next day a frozen cell from the above cells was made. 1 ml of a freshly saturated culture was added to a microcentrifuge tube containing 1 ml DMSO (7%). These cells were stored at −80° C. Cells from frozen stocks were streaked out again and one colony from each plate was transferred to 1 ml NZY(amp, 50 μg/ml) broth. The tubes were shaken at 37° C. overnight.
(§2) Top agar (1% tryptone, 0.8% NaCl, 0.7% agar) was used to distribute cells in a thin layer over the surface of a plate. 100 μl of fresh cell was mixed with 2.5 ml top agar. The mixture was then poured into NZY AP (50 μg/ml). Microtiter dishes containing 96-well, were used to prepare serial dilutions in 10% DMSO (1:5, 1:25, 1:125, 1:625) of extracts. A multi-channel pipeting device was used to add 5 μl extract to the top agar plate. Agar plates containing extract were incubated overnight at 37° C. At the end of incubation, inhibition appeared as clear zone around the place that extract was added. Positive extracts from the initial screens were analyzed further. […]

[3] = tested on: strain DM46, which contains the rnpB gene cloned on a high copy plasmid; assay: Top agar plate screen of extract dilutions, strain DM46; type: cell-based, E. coli; details: strain DM46 (multicopy rnpB)
Description: as §1, §2

Row | SMILES | Inhibition of ribonuclease P RNA reaction [1] | Inhibition of growth, in words [2] | Inhibition of growth, in words [3]
1 | NC[C@@H]1O[C@H](O[C@H]2[C@@H](O)[C@H](O[C@@H]3[C@@H](O)[C@H](N)C[C@H](N)[C@H]3O[C@H]3O[C@H](CN)[C@@H](O)[C@H](O)[C@H]3N)O[C@@H]2CO)[C@H](N)[C@@H](O)[C@@H]1O [Neomycin B] | micromolar concentrations | – | –
2 | COc1ccc(C[C@H](N)C(=O)N[C@H]2[C@@H](O)[C@H](n3cnc4c(N(C)C)ncnc43)O[C@@H]2CO)cc1 [puromycin] | inhibits the catalytic reaction of ribonuclease P RNA | inhibits the growth of both strains | inhibits the growth of both strains
